According to the supplement of paper PMC10307832:

Columns and labels:
Assay in all cases: relative viability (nuclei count vs DMSO), 5 days (fraction); higher = more cells survive
[1] = compound: CN(c1ncccc1CNc1nc(Nc2ccc3c(c2)CC(=O)N3)ncc1C(F)(F)F)S(C)(=O)=O + CCNC(=O)c1noc(-c2cc(C(C)C)c(O)cc2O)c1-c1ccc(CN2CCOCC2)cc1 [Luminespib] (partner 0.01 µM)
Summary of the method: (§1)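 Lung cancer cell lines, seeded in 1536-well plates, were treated the following day by pin tool with a single drug or with five library-drug doses (not always all listed) in √10 steps on top of a fixed anchor-drug dose. Cells were fixed and nuclei stained in one step after 5 days, and nuclei were counted. Relative viability is the nuclei count for treated wells divided by that for vehicle wells, reported as medians of duplicate plates.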

[2] = compound: CN(c1ncccc1CNc1nc(Nc2ccc3c(c2)CC(=O)N3)ncc1C(F)(F)F)S(C)(=O)=O + CC(C)C[C@H](NC(=O)[C@H](Cc1ccccc1)NC(=O)c1cnccn1)B(O)O [Bortezomib] (partner 0.002 µM)
Summary of the method: as §1

[3] = compound: CN(c1ncccc1CNc1nc(Nc2ccc3c(c2)CC(=O)N3)ncc1C(F)(F)F)S(C)(=O)=O + Cc1nc(Nc2ncc(C(=O)Nc3c(C)cccc3Cl)s2)cc(N2CCN(CCO)CC2)n1 [Dasatinib] (partner 0.075 µM)
Summary of the method: as §1

[4] = compound: CN(c1ncccc1CNc1nc(Nc2ccc3c(c2)CC(=O)N3)ncc1C(F)(F)F)S(C)(=O)=O + CC(=O)c1c(C)c2cnc(Nc3ccc(N4CCNCC4)cn3)nc2n(C2CCCC2)c1=O [Palbociclib] (partner 0.5 µM)
Summary of the method: as §1

| Cell Line | relative viability ([1]; first compound 0.01 µM) | relative viability ([1]; first compound 0.03162 µM) | relative viability ([1]; first compound 0.1 µM) | relative viability ([1]; first compound 0.3162 µM) | relative viability ([1]; first compound 1 µM) | relative viability ([2]; first compound 0.01 µM) | relative viability ([2]; first compound 0.03162 µM) | relative viability ([2]; first compound 0.1 µM) | relative viability ([2]; first compound 0.3162 µM) | relative viability ([2]; first compound 1 µM) | relative viability ([3]; first compound 0.01 µM) | relative viability ([3]; first compound 0.03162 µM) | relative viability ([3]; first compound 0.1 µM) | relative viability ([3]; first compound 0.3162 µM) | relative viability ([3]; first compound 1 µM) | relative viability ([4]; first compound 0.01 µM) | relative viability ([4]; first compound 0.03162 µM) | relative viability ([4]; first compound 0.1 µM) | relative viability ([4]; first compound 0.3162 µM) | relative viability ([4]; first compound 1 µM) |
| --- | --- | --- | --- | --- | --- | --- | --- | --- | --- | --- | --- | --- | --- | --- | --- | --- | --- | --- | --- | --- |
| NCI-H1792 | 0.387 | 0.54 | 0.467 | 0.451 | 0.359 | 1.02 | 0.999 | 0.83 | 0.924 | 0.941 | 0.803 | 0.841 | 0.623 | 0.581 | 0.55 | 0.627 | 0.783 | 0.63 | 0.637 | 0.602 |
| NCI-H1355 | 0.713 | 0.723 | 0.645 | 0.624 | 0.65 | 1.29 | 1.28 | 1.14 | 1.14 | 1.07 | 0.757 | 0.76 | 0.75 | 0.606 | 0.645 | 0.387 | 0.362 | 0.407 | 0.418 | 0.331 |
| SW 1573 | 0.726 | 0.195 | 0.289 | 0.311 | 0.189 | 1.17 | 0.898 | 0.977 | 1.05 | 1.11 | 0.428 | 0.453 | 0.406 | 0.383 | 0.273 | 0.482 | 0.399 | 0.346 | 0.31 | 0.35 |
| NCI-H2347 | 0.643 | 0.557 | 0.243 | 0.592 | 0.389 | 1.08 | 0.93 | 0.927 | 0.801 | 0.45 | 0.283 | 0.313 | 0.331 | 0.297 | 0.283 | 0.434 | 0.389 | 0.426 | 0.354 | 0.377 |
| LCLC-97TM1 | 0.779 | 0.854 | 0.788 | 0.81 | 0.632 | 1.04 | 0.74 | 0.439 | 0.559 | 0.526 | 0.727 | 0.794 | 0.815 | 0.773 | 0.722 | 0.217 | 0.176 | 0.171 | 0.18 | 0.158 |
| EMC-BAC-2 | 1.16 | 1.27 | 1.17 | 1.16 | 0.994 | 1.08 | 1.1 | 1 | 1.06 | 1.08 | 0.247 | 0.308 | 0.279 | 0.295 | 0.271 | 0.494 | 0.503 | 0.518 | 0.511 | 0.491 |
| NCI-H1975 | 0.243 | 0.259 | 0.239 | 0.389 | 0.194 | 0.423 | 0.449 | 0.44 | 0.395 | 0.276 | 0.359 | 0.272 | 0.28 | 0.27 | 0.262 | 0.602 | 0.639 | 0.712 | 0.532 | 0.502 |
| BEN | 0.392 | 0.313 | 0.863 | 0.289 | 0.328 | 0.821 | 0.772 | 0.993 | 0.865 | 0.856 | 0.319 | 0.312 | 0.272 | 0.289 | 0.267 | 0.461 | 0.472 | 0.48 | 0.499 | 0.434 |
| NCI-H23 | 0.182 | 0.204 | 0.207 | 0.228 | 0.207 | 1.22 | 1.38 | 1.09 | 1.08 | 1.03 | 0.78 | 0.697 | 0.882 | 0.835 | 0.719 | 0.581 | 0.538 | 0.549 | 0.618 | 0.455 |
| NCI-H520 | 0.209 | 0.242 | 0.205 | 0.2 | 0.183 | 0.695 | 0.513 | 0.489 | 1.13 | 0.635 | 0.21 | 0.221 | 0.151 | 0.152 | 0.155 | 0.27 | 0.209 | 0.244 | 0.262 | 0.24 |
| CAL-12T | 0.284 | 0.55 | 0.451 | 0.258 | 0.277 | 1.07 | 0.886 | 0.856 | 0.919 | 0.878 | 0.35 | 0.213 | 0.268 | 0.191 | 0.136 | 0.44 | 0.341 | 0.416 | 0.407 | 0.366 |
| EPLC-272H | 0.6 | 0.487 | 0.265 | 0.317 | 0.251 | 0.972 | 0.774 | 0.854 | 0.944 | 0.758 | 0.338 | 0.27 | 0.218 | 0.209 | 0.135 | 0.366 | 0.357 | 0.358 | 0.353 | 0.299 |
| LCLC-103H | 0.754 | 0.927 | 0.918 | 0.892 | 0.752 | 1.13 | 1.05 | 1.18 | 0.937 | 1.02 | 0.47 | 0.36 | 0.481 | 0.442 | 0.332 | 0.499 | 0.428 | 0.5 | 0.471 | 0.484 |
| NCI-H2405 | 0.791 | 0.723 | 0.622 | 0.464 | 0.52 | 1.05 | 0.972 | 1.03 | 0.865 | 0.813 | 0.229 | 0.197 | 0.184 | 0.22 | 0.218 | 0.51 | 0.518 | 0.504 | 0.466 | 0.391 |
| HCC-15 | 0.543 | 0.456 | 0.349 | 0.407 | 0.301 | 1.04 | 1 | 0.898 | 0.88 | 0.829 | 0.541 | 0.602 | 0.497 | 0.428 | 0.408 | 0.709 | 0.747 | 0.65 | 0.609 | 0.583 |
| PC-3 [JPC-3] | 0.719 | 0.788 | 0.792 | 0.665 | 0.636 | 0.853 | 0.801 | 0.827 | 0.855 | 0.829 | 0.988 | 0.949 | 0.892 | 0.911 | 0.953 | 0.606 | – | 0.529 | 0.453 | 0.455 |
